Assay results from the supplement of paper PMC10627819.

Columns and labels:
Assay in all cases: fitness (endpoint OD595 vs no drug) (fraction); higher = more growth
B. subtilis 168 = tested on: B. subtilis 168
In short: (§1)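 Fitness was measured as bacterial growth in 384-well plates inoculated at OD595 0.01 (30 µl, or 55 µl for S. pneumoniae). Media were TSB, LB Lennox or CY, at 37 °C. OD595 was read every 30 min for 14 h and background-subtracted against the first reading. Fitness is OD595 at the transition into stationary phase divided by the robust mean of no-drug control wells, capped at 1.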

S. aureus DSM 20231 = tested on: S. aureus DSM 20231
In short: as §1

S. pneumoniae D39V = tested on: S. pneumoniae D39V
In short: as §1
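Further: OD595 on entry to stationary phase over no-drug wells; at most 1.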

CN(C)[C@@H]1C(O)=C(C(N)=O)C(=O)[C@@]2(O)C(O)=C3C(=O)c4c(O)ccc(Cl)c4[C@@](C)(O)[C@H]3C[C@@H]12 [Chlortetracycline] + CCN(CC)CCOC(=O)c1ccc(N)cc1 [Procaine]
fitness
Conditions	partner 85.5 µg/mL	partner 171 µg/mL	partner 342 µg/mL
B. subtilis 168, first compound 0.0475 µg/mL	0.908	0.855	0.878
B. subtilis 168, first compound 0.095 µg/mL	0.695	0.699	0.703
B. subtilis 168, first compound 0.19 µg/mL	–	0.528	–
S. aureus DSM 20231, first compound 0.012 µg/mL	0.568	0.615	0.613
S. aureus DSM 20231, first compound 0.024 µg/mL	0.23	0.2	0.2
S. aureus DSM 20231, first compound 0.048 µg/mL	0.0791	0.058	0.0382
S. pneumoniae D39V, first compound 0.375 µg/mL	0.0458	0.0259	0.0318
S. pneumoniae D39V, first compound 0.75 µg/mL	0.055	0.0347	0.0395
S. pneumoniae D39V, first compound 1.5 µg/mL	0.0277	0.0174	0.0396

fitness, one replicate
Conditions	partner 85.5 µg/mL	partner 171 µg/mL	partner 342 µg/mL
S. aureus DSM 20231, first compound 0.006 µg/mL	0.713	0.8	0.737
S. pneumoniae D39V, first compound 0.012 µg/mL	0.95	0.897	0.929
S. pneumoniae D39V, first compound 0.024 µg/mL	0.921	0.835	0.86
S. pneumoniae D39V, first compound 0.048 µg/mL	0.835	0.726	0.736

CN(C)[C@@H]1C(O)=C(C(N)=O)C(=O)[C@@]2(O)C(O)=C3C(=O)c4c(O)ccc(Cl)c4[C@@](C)(O)[C@H]3C[C@@H]12 [Chlortetracycline] + COc1c(N2C[C@@H]3CCCN[C@@H]3C2)c(F)cc2c(=O)c(C(=O)O)cn(C3CC3)c12 [Moxifloxacin]
Conditions	fitness
B. subtilis 168, first compound 0.0475 µg/mL, partner 0.0312 µg/mL	0.0451
B. subtilis 168, first compound 0.0475 µg/mL, partner 0.0625 µg/mL	0.0327
B. subtilis 168, first compound 0.0475 µg/mL, partner 0.125 µg/mL	0.0439
B. subtilis 168, first compound 0.0475 µg/mL, partner 2 µg/mL	0.0242
B. subtilis 168, first compound 0.0475 µg/mL, partner 4 µg/mL	0.0248
B. subtilis 168, first compound 0.0475 µg/mL, partner 8 µg/mL	0.0159
B. subtilis 168, first compound 0.095 µg/mL, partner 0.0312 µg/mL	0.104
B. subtilis 168, first compound 0.095 µg/mL, partner 0.0625 µg/mL	0.0278
B. subtilis 168, first compound 0.095 µg/mL, partner 0.125 µg/mL	0.0296
B. subtilis 168, first compound 0.095 µg/mL, partner 2 µg/mL	0.0289
B. subtilis 168, first compound 0.095 µg/mL, partner 4 µg/mL	0.0255
B. subtilis 168, first compound 0.095 µg/mL, partner 8 µg/mL	0.0155
B. subtilis 168, first compound 0.19 µg/mL, partner 0.0312 µg/mL	0.0533
B. subtilis 168, first compound 0.19 µg/mL, partner 0.0625 µg/mL	0.0332
B. subtilis 168, first compound 0.19 µg/mL, partner 0.125 µg/mL	0.0433
B. subtilis 168, first compound 0.19 µg/mL, partner 2 µg/mL	0.0261
B. subtilis 168, first compound 0.19 µg/mL, partner 4 µg/mL	0.0247
B. subtilis 168, first compound 0.19 µg/mL, partner 8 µg/mL	0.0129
S. aureus DSM 20231, first compound 0.012 µg/mL, partner 0.0075 µg/mL	0.558
S. aureus DSM 20231, first compound 0.012 µg/mL, partner 0.015 µg/mL	0.539
S. aureus DSM 20231, first compound 0.012 µg/mL, partner 0.03 µg/mL	0.604
S. aureus DSM 20231, first compound 0.024 µg/mL, partner 0.0075 µg/mL	0.193
S. aureus DSM 20231, first compound 0.024 µg/mL, partner 0.015 µg/mL	0.177
S. aureus DSM 20231, first compound 0.048 µg/mL, partner 0.0075 µg/mL	0.185
S. aureus DSM 20231, first compound 0.048 µg/mL, partner 0.015 µg/mL	0.172
S. aureus DSM 20231, first compound 0.048 µg/mL, partner 0.03 µg/mL	0.132
S. pneumoniae D39V, first compound 0.012 µg/mL, partner 0.005 µg/mL	0.907
S. pneumoniae D39V, first compound 0.012 µg/mL, partner 0.01 µg/mL	0.923
S. pneumoniae D39V, first compound 0.012 µg/mL, partner 0.02 µg/mL	0.765
S. pneumoniae D39V, first compound 0.024 µg/mL, partner 0.005 µg/mL	0.863
S. pneumoniae D39V, first compound 0.024 µg/mL, partner 0.01 µg/mL	0.915
S. pneumoniae D39V, first compound 0.024 µg/mL, partner 0.02 µg/mL	0.844
S. pneumoniae D39V, first compound 0.048 µg/mL, partner 0.005 µg/mL	0.821
S. pneumoniae D39V, first compound 0.048 µg/mL, partner 0.01 µg/mL	0.871
S. pneumoniae D39V, first compound 0.048 µg/mL, partner 0.02 µg/mL	0.78
S. pneumoniae D39V, first compound 0.375 µg/mL, partner 0.0312 µg/mL	0.0285
S. pneumoniae D39V, first compound 0.375 µg/mL, partner 0.0625 µg/mL	0.0351
S. pneumoniae D39V, first compound 0.375 µg/mL, partner 0.125 µg/mL	0.0309
S. pneumoniae D39V, first compound 0.75 µg/mL, partner 0.0312 µg/mL	0.0253
S. pneumoniae D39V, first compound 0.75 µg/mL, partner 0.0625 µg/mL	0.0219
S. pneumoniae D39V, first compound 0.75 µg/mL, partner 0.125 µg/mL	0.0157
S. pneumoniae D39V, first compound 1.5 µg/mL, partner 0.0312 µg/mL	0.0473
S. pneumoniae D39V, first compound 1.5 µg/mL, partner 0.0625 µg/mL	0.0386
S. pneumoniae D39V, first compound 1.5 µg/mL, partner 0.125 µg/mL	0.0409

S. aureus DSM 20231, one replicate
Conditions	fitness
first compound 0.006 µg/mL, partner 0.0075 µg/mL	0.729
first compound 0.006 µg/mL, partner 0.015 µg/mL	0.719
first compound 0.006 µg/mL, partner 0.03 µg/mL	0.621
first compound 0.012 µg/mL, partner 0.06 µg/mL	0.659
first compound 0.012 µg/mL, partner 0.12 µg/mL	0.548
first compound 0.024 µg/mL, partner 0.06 µg/mL	0.66
first compound 0.024 µg/mL, partner 0.12 µg/mL	0.535
first compound 0.048 µg/mL, partner 0.06 µg/mL	0.14
first compound 0.048 µg/mL, partner 0.12 µg/mL	0.165
